This experiment concerns HCT116 MTAP-deleted cell lines. In words: Cell viability assay (CellTiter-Glo, 7 days), HCT116 MTAP-deleted. The experiment is classed as cell-based. The conditions noted are these: Homo sapiens, HCT-116, HCT116 MTAP-deleted, class symbols, read-out: CC50. An outline of the steps:
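Luminescent ATP readout (CellTiter-Glo) after 7 days of continuous compound exposure gives the CC50 value. Cells were plated onto pre-dispensed DMSO dilution series of the PRMT5 inhibitors and kept at 37 °C in 5% CO2.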
Background: ATP-based viability assays read luminescence as a measure of living cells.

Read-outs that look alike come from different tables or passages of the source. Bounds are passed on as bounds.

On to `C[C@@H]1CN(C(=O)c2cc3c(cc2F)nc(N)c2cncn23)[C@H]2c3ccc(-c4cnn(C(F)F)c4)c(F)c3C[C@H]2O1` [Ff-199, (4-amino-7-fluoroimidazo[1,5-a]quinoxalin-8-yl)((2R,4aS,9aR)-7-(1-(difluoromethyl)-1H-pyrazol-4-yl)-8-fluoro-2-methyl-2,3,9,9a-tetrahydroindeno[2,1-b][1,4]oxazin-4(4aH)-yl)methanone], for which the CC50 (cell viability) was below 100 nM.
Consider `Cc1ncc2c(N)nc3cnc(C(=O)N4C[C@H](C)C[C@@H]5Oc6c(ccc(C(F)(F)F)c6F)[C@@H]54)cc3n12` [Ff-388, (4-amino-1-methylimidazo[1,5-a]pyrido[3,4-e]pyrazin-8-yl)((3R,4aS,9bS)-6-fluoro-3-methyl-7-(trifluoromethyl)-3,4,4a,9b-tetrahydrobenzofuro[3,2-b]pyridin-1(2H)-yl)methanone], for which, for the setting “cell viability assay”, the CC50 is below 100 nM.
Take `C[C@@H]1CN(C(=O)c2cc3c(cc2F)nc(N)c2cncn23)[C@H]2c3ccc(C(F)(F)F)cc3C[C@H]2O1` (single isomer, unassigned) [Ff-77]: the CC50 (cell viability) is below 100 nM.
Same read-out and setting: under `Nc1nc2cc(F)c(C(=O)N(Cc3ccc(-c4ccnn4C(F)(F)F)cc3F)C34CC(C3)C4)cc2n2cncc12` [Ff-218, 4-amino-N-(bicyclo[1.1.1]pentan-1-yl)-7-fluoro-N-(2-fluoro-4-(1-(trifluoromethyl)-1H-pyrazol-5-yl)benzyl)imidazo[1,5-a]quinoxaline-8-carboxamide] stands below 100 nM.
On to `COc1ccc2c(c1)CO[C@H]1CCCN(C(=O)c3cc4c(cc3F)nc(N)c3cncn34)[C@@H]21` (single isomer, unassigned) [Ff-390], for which, under “cell viability assay”, the 50% cytotoxic concentration (CC50) was below 100 nM.
Same read-out and setting: for `CC(C)N(Cc1ccc(-c2ccc(OC(F)F)cc2)cc1F)C(=O)c1cc2c(cc1F)nc(N)c1cncn12` [Ff-591, 4-amino-N-((4′-(difluoromethoxy)-3-fluoro-[1,1′-biphenyl]-4-yl)methyl)-7-fluoro-N-isopropylimidazo[1,5-a]quinoxaline-8-carboxamide] the value was below 100 nM.
Regarding `CN(C(=O)c1cc2c(cc1F)nc(N)c1cncn12)[C@H]1c2ccc(Br)cc2[C@H]2C[C@H]21` [Ff-313, 4-amino-N-((1aS,6R,6aR)-3-bromo-1,1a,6,6a-tetrahydrocyclopropa[a]inden-6-yl)-7-fluoro-N-methylimidazo[1,5-a]quinoxaline-8-carboxamide], the CC50 (cell viability) was 100 to 1000 nM.
Still for that read-out and setting: under `C[C@H]1CN(C(=O)c2ccc3nc(N)c4cncn4c3c2)[C@H]2c3ccc(C(F)(F)F)cc3C[C@H]2O1` [Ff-89, (4-aminoimidazo[1,5-a]quinoxalin-8-yl)((2S,4aS,9aR)-2-methyl-7-(trifluoromethyl)-2,3,9,9a-tetrahydroindeno[2,1-b][1,4]oxazin-4(4aH)-yl)methanone] stands below 100 nM; under `C[C@H]1CN(C(=O)c2cc3c(cc2F)nc(N)c2cncn23)[C@@H](c2ccc(C(F)(F)F)cn2)CO1` [Ff-130, (4-amino-7-fluoroimidazo[1,5-a]quinoxalin-8-yl)((2S,5S)-2-methyl-5-(5-(trifluoromethyl)pyridin-2-yl)morpholino)methanone], below 100 nM.
On the same count and under the same terms, for `C[C@@H]1CN(C(=O)c2cc3c(cn2)nc(N)c2cncn23)[C@H]2c3cc(F)c(OC(F)(F)F)cc3C[C@H]2O1` (single isomer, unassigned) [Ff-195] the value was below 100 nM.
Consider `Cc1ncn2c1c(N)nc1cc(F)c(C(=O)N(C)[C@@H]3COc4cc(C(C)(F)F)ccc43)cc12` [Ff-382, (S)-4-amino-N-(6-(1,1-difluoroethyl)-2,3-dihydrobenzofuran-3-yl)-7-fluoro-N,3-dimethylimidazo[1,5-a]quinoxaline-8-carboxamide], for which, where the note is “cell viability assay”, the CC50 was below 100 nM.
Take `Nc1nc2cc(F)c(C(=O)N3CCC[C@@H]4OCc5cc(OC(F)F)ccc5[C@@H]43)cc2n2cncc12` (racemic) [Ff-287, Rac-(4-amino-7-fluoroimidazo[1,5-a]quinoxalin-8-yl)((4aS,10bS)-8-(difluoromethoxy)-2,3,4,4a,6,10b-hexahydro-1H-isochromeno[4,3-b]pyridin-1-yl)methanone]: the cytotoxic concentration (CC50) (cell viability) was below 100 nM.
On the same count and under the same terms, under `Nc1nc2cnc(C(=O)N3CCC[C@@H]4Oc5cc(OC(F)(F)F)c(F)cc5[C@@H]43)cc2n2cncc12` (racemic) [Ff-338, Rac-(4-aminoimidazo[1,5-a]pyrido[3,4-e]pyrazin-8-yl)((4aS,9bS)-8-fluoro-7-(trifluoromethoxy)-3,4,4a,9b-tetrahydrobenzofuro[3,2-b]pyridin-1(2H)-yl)methanone] stands below 100 nM.
Take `Cc1nn(C)cc1N(Cc1ccc(C(F)(F)F)cc1F)C(=O)c1cc2c(cc1F)nc(N)c1cncn12` [Ff-413, 4-amino-N-(1,3-dimethylpyrazol-4-yl)-7-fluoro-N-[[2-fluoro-4-(trifluoromethyl)phenyl]methyl]imidazo[1,5-a]quinoxaline-8-carboxamide]: the CC50 (cell viability assay) was below 100 nM.
Still for that read-out and setting: under `CN(C(=O)c1cc2c(cc1F)nc(N)c1cncn12)C1CSc2ccccc21` (stereo not shown) [Ff-456, 4-amino-N-(2,3-dihydrobenzo[b]thiophen-3-yl)-7-fluoro-N-methylimidazo[1,5-a]quinoxaline-8-carboxamide] stands 100 to 1000 nM.
With `COc1cc2c(cc1F)[C@H]1[C@H](CCCN1C(=O)c1cc3c(cc1F)nc(N)c1cncn13)OC2` (racemic) [Ff-300, Rac-(4-amino-7-fluoroimidazo[1,5-a]quinoxalin-8-yl)((4aS,10bS)-9-fluoro-8-methoxy-2,3,4,4a,6,10b-hexahydro-1H-isochromeno[4,3-b]pyridin-1-yl)methanone], the 50% cytotoxic concentration (CC50) (cell viability) was below 100 nM.
With `Nc1nc2cc(F)c(C(=O)N3CCO[C@@H]4Cc5cc(Br)c(F)cc5[C@@H]43)cc2n2cncc12` [Ff-160, (4-amino-7-fluoroimidazo[1,5-a]quinoxalin-8-yl)((4aS,9aR)-7-bromo-6-fluoro-2,3,9,9a-tetrahydroindeno[2,1-b][1,4]oxazin-4(4aH)-yl)methanone], for the setting “cell viability”, the CC50 was below 100 nM.
`CN(C(=O)c1cc2c(cc1F)nc(N)c1cncn12)[C@@H]1COc2cc(C#CC(F)(F)F)ccc21` [Ff-515, (S)-4-amino-7-fluoro-N-methyl-N-(6-(3,3,3-trifluoroprop-1-yn-1-yl)-2,3-dihydrobenzofuran-3-yl)imidazo[1,5-a]quinoxaline-8-carboxamide]: for the setting “cell viability assay”, the CC50 fell in the range of 100 to 1000 nM.
Consider `Cc1ncn2c1c(N)nc1cnc(C(=O)N3CCC[C@@H]4Oc5cc(C(F)(F)F)c(F)cc5[C@@H]43)cc12` [Ff-116, (4-amino-3-methylimidazo[1,5-a]pyrido[3,4-e]pyrazin-8-yl)((4aS,9bS)-8-fluoro-7-(trifluoromethyl)-3,4,4a,9b-tetrahydrobenzofuro[3,2-b]pyridin-1(2H)-yl)methanone], for which the half-maximal cytotoxic concentration (CC50) (cell viability) is below 100 nM.
Turning to `Cc1ncn2c1c(N)nc1cc(F)c(C(=O)N(C)[C@@H]3COc4cc([C@@H]5C[C@H]5C#N)c(F)cc43)cc12` [Ff-450, Trans-4-amino-N-[(3S)-6-(2-cyanocyclopropyl)-5-fluoro-2,3-dihydrobenzofuran-3-yl]-7-fluoro-N,3-dimethyl-imidazo[1,5-a]quinoxaline-8-carboxamide], under “cell viability assay”, the half-maximal cytotoxic concentration (CC50) was below 100 nM.
Still for that read-out and setting: for `Nc1nc2cnc(C(=O)N3CCC[C@@H]4Oc5cc(Cl)ccc5[C@@H]43)cc2n2cncc12` [Fg-28, (4-aminoimidazo[1,5-a]pyrido[3,4-e]pyrazin-8-yl)((4aS,9bS)-7-chloro-3,4,4a,9b-tetrahydrobenzofuro[3,2-b]pyridin-1(2H)-yl)methanone] the value was below 100 nM.
As to `Nc1nc2cc(F)c(C(=O)N3CC(F)(F)CC[C@H]3c3ccc(C(F)(F)F)cn3)cc2n2cncc12` (single isomer, unassigned) [Ff-243], under “cell viability”, the 50% cytotoxic concentration (CC50) is 100 to 1000 nM.
Still for that read-out and setting: under `Nc1nc2cc(F)c(C(=O)N3CCC[C@@H]4Oc5cc(OC(F)F)c(F)cc5[C@@H]43)cc2n2cncc12` (racemic) [Ff-157, rac-(4-amino-7-fluoroimidazo[1,5-a]quinoxalin-8-yl)((4aS,9bS)-7-(difluoromethoxy)-8-fluoro-3,4,4a,9b-tetrahydrobenzofuro[3,2-b]pyridin-1(2H)-yl)methanone] stands below 100 nM.
For `CN(C(=O)c1cc2c(cc1F)nc(N)c1cncn12)[C@@H]1COc2cc(-c3cnn(-c4ccccc4)c3)ccc21` [Ff-472, (S)-4-amino-7-fluoro-N-methyl-N-(6-(1-phenyl-1H-pyrazol-4-yl)-2,3-dihydrobenzofuran-3-yl)imidazo[1,5-a]quinoxaline-8-carboxamide], the 50% cytotoxic concentration (CC50) (cell viability assay) was below 100 nM.
As for `Nc1nc2cc(F)c(C(=O)N3CCO[C@@H]4Cc5cc(-c6ccc(C(F)(F)F)nc6)ccc5[C@@H]43)cc2n2cncc12` [Ff-239, (4-amino-7-fluoroimidazo[1,5-a]quinoxalin-8-yl)((4aS,9aR)-7-(6-(trifluoromethyl)pyridin-3-yl)-2,3,9,9a-tetrahydroindeno[2,1-b][1,4]oxazin-4(4aH)-yl)methanone], where the note is “cell viability”, the CC50 is below 100 nM.
The same measure, in the same setting: under `C[C@H]1CN(C(=O)c2cc3c(cc2F)nc(N)c2cncn23)[C@H]2c3cc(F)c(OC(F)F)cc3C[C@H]2O1` [Ff-175, (4-amino-7-fluoroimidazo[1,5-a]quinoxalin-8-yl)((2S,4aS,9aR)-7-(difluoromethoxy)-6-fluoro-2-methyl-2,3,9,9a-tetrahydroindeno[2,1-b][1,4]oxazin-4(4aH)-yl)methanone] stands below 100 nM; under `C[C@@H]1C[C@@H]2Oc3cc(C(F)(F)F)c(F)cc3[C@@H]2N(C(=O)c2cc3c(cc2F)nc(N)c2cncn23)C1` [Ff-248, (4-amino-7-fluoroimidazo[1,5-a]quinoxalin-8-yl)((3R,4aS,9bS)-8-fluoro-3-methyl-7-(trifluoromethyl)-3,4,4a,9b-tetrahydrobenzofuro[3,2-b]pyridin-1(2H)-yl)methanone], below 100 nM.
Consider `CN(C(=O)c1cc2c(cc1F)nc(N)c1cncn12)[C@@H]1CCc2cc(C(F)(F)F)ccc21` (single isomer, unassigned) [Ff-398], for which the 50% cytotoxic concentration (CC50) (cell viability assay) was below 100 nM.

A word on the CC50: it is the concentration that lowers cell viability or growth by half.

These data come from US12448388B2, “PRMT5 inhibitors and uses thereof” (Gilead Sciences, Inc., priority 2023, dated 2025).
